From BindingDB's records for aid1799744 (Csar, 2012)

Target: Mitogen-activated protein kinase 1 (Homo sapiens, UniProt P28482)
Test: Assay 1

Sequence of Mitogen-activated protein kinase 1 (P28482 whole entry): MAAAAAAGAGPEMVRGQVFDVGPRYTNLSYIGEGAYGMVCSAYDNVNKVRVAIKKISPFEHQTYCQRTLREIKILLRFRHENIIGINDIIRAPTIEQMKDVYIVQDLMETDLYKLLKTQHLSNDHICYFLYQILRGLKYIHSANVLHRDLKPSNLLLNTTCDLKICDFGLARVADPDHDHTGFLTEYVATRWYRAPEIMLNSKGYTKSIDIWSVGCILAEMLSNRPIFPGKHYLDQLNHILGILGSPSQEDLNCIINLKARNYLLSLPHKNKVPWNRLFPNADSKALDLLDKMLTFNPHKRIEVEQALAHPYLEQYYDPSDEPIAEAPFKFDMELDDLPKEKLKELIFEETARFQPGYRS

Row | Ki | SMILES
1 | 110 nM | Cc1cnc(Nc2c(C)cccc2Cl)nc1-c1c[nH]c(C(=O)N[C@H](CO)c2ccccc2)c1 [erk000575]
2 | 7 nM | Cc1cnc(NCCc2ccccc2)nc1-c1c[nH]c(C(=O)N[C@H](CO)c2ccccc2)c1 [erk000578]
3 | 776 nM | Cc1cnc(NCc2ccncc2)nc1-c1c[nH]c(C(=O)N[C@H](CO)c2ccccc2)c1 [erk000579]
4 | 1120 nM | Cc1cnc(NCc2ccccn2)nc1-c1c[nH]c(C(=O)N[C@H](CO)c2ccccc2)c1 [erk000580]
5 | 6 nM | CCONc1ncc(C)c(-c2c[nH]c(C(=O)N[C@H](CO)c3cccc(Cl)c3)c2)n1 [erk000582]
6 | 8 nM | Cc1cnc(NC2CCOCC2)nc1-c1c[nH]c(C(=O)N[C@H](CO)c2cccc(Cl)c2)c1 [erk000584]
7 | 7 nM | Cc1ccc(Nc2ncc(C)c(-c3c[nH]c(C(=O)N[C@H](CO)c4cccc(Cl)c4)c3)n2)cc1 [erk000585]
8 | 2 nM | Cc1ccc(Nc2ncc(C)c(-c3c[nH]c(C(=O)N[C@H](CO)c4cccc(C)c4)c3)n2)cc1 [erk000586]
9 | 1 nM | Cc1cnc(NN2CCCCC2)nc1-c1c[nH]c(C(=O)N[C@H](CO)c2ccccc2)c1 [erk000587]
10 | 10 nM | Cc1ccc(-c2csc(Nc3ncc(C)c(-c4c[nH]c(C(=O)N[C@H](CO)c5ccccc5)c4)n3)n2)cc1 [erk000588]
11 | 8 nM | Cc1cnc(Nc2cccc3c2OC(F)(F)O3)nc1-c1c[nH]c(C(=O)N[C@H](CO)c2ccccc2)c1 [erk000591]
12 | 16 nM | Cc1cnc(NC2Cc3ccccc3C2)nc1-c1c[nH]c(C(=O)N[C@H](CO)c2cccc(Cl)c2)c1 [erk000592]
13 | 14 nM | Cc1cnc(Nc2c(F)cccc2F)nc1-c1c[nH]c(C(=O)N[C@H](CO)c2cccc(Cl)c2)c1 [erk000593]
14 | 27 nM | N#Cc1c(NCCN2CCCCC2)sc(-c2ccnc(Nc3cccc(O)c3)n2)c1-c1cccc(Cl)c1 [erk000594]
15 | 14 nM | Cc1cnc(NOCC(C)C)nc1-c1c[nH]c(C(=O)N[C@H](CO)c2cccc(Cl)c2)c1 [erk000597]
16 | 3 nM | CCONc1ncc(C)c(-c2c[nH]c(C(=O)N[C@H](CO)c3cccc(C)c3)c2)n1 [erk000599]
17 | 10 nM | Cc1cccc([C@@H](CO)NC(=O)c2cc(-c3nc(NOCC(C)C)ncc3C)c[nH]2)c1 [erk000600]
18 | 8 nM | Cc1cccc([C@@H](CO)NC(=O)c2cc(-c3nc(Nc4cccc(F)c4C)ncc3C)c[nH]2)c1 [erk000601]
19 | 3 nM | Cc1cccc([C@@H](CO)NC(=O)c2cc(-c3nc(NC4CCOCC4)ncc3C)c[nH]2)c1 [erk000602]
20 | 9 nM | Cc1cccc([C@@H](CO)NC(=O)c2cc(-c3nc(Nc4ccccn4)ncc3C)c[nH]2)c1 [erk000603]
21 | 76 nM | CC[C@@H](C)Nc1ncc(C)c(-c2c[nH]c(C(=O)N[C@H](CO)c3cccc(C)c3)c2)n1 [erk000604]
22 | 6 nM | Cc1cnc(N[C@@H](C)C(C)C)nc1-c1c[nH]c(C(=O)N[C@H](CO)c2cccc(Cl)c2)c1 [erk000605]
23 | 13 nM | Cc1cnc(N[C@@H]2CCC[C@H](C)[C@@H]2C)nc1-c1c[nH]c(C(=O)N[C@H](CO)c2cccc(Cl)c2)c1 [erk000606]
24 | 1 nM | Cc1cnc(N[C@H](C)C(C)C)nc1-c1c[nH]c(C(=O)N[C@H](CO)c2cccc(Cl)c2)c1 [erk000607]
25 | 17 nM | Cc1cnc(N[C@H]2CCC[C@H]2OCc2ccccc2)nc1-c1c[nH]c(C(=O)N[C@H](CO)c2cccc(Cl)c2)c1 [erk000608]
26 | 46 nM | Cc1cnc(N[C@H]2CCC[C@@H]2OCc2ccccc2)nc1-c1c[nH]c(C(=O)N[C@H](CO)c2cccc(Cl)c2)c1 [erk000609]

Row | Ki | SMILES
27 | 10 nM | Cc1cccc([C@@H](CO)NC(=O)c2cc(-c3nc(N[C@@H]4CCOC4)ncc3C)c[nH]2)c1 [erk000610]
28 | 71 nM | Cc1cnc(Nc2ccccn2)nc1-c1c[nH]c(C(=O)N[C@H](CO)c2cccc(Cl)c2)c1 [erk000611]
29 | 7 nM | Cc1cnc(N[C@H]2CCC[C@H]2O)nc1-c1c[nH]c(C(=O)N[C@H](CO)c2cccc(Cl)c2)c1 [erk000612]
30 | 35 nM | Cc1cnc(N[C@H]2CCC[C@@H]2O)nc1-c1c[nH]c(C(=O)N[C@H](CO)c2cccc(Cl)c2)c1 [erk000613]
31 | 5 nM | CCCONc1ncc(C)c(-c2c[nH]c(C(=O)N[C@H](CO)c3cccc(C)c3)c2)n1 [erk000614]
32 | 4 nM | CCCONc1ncc(C)c(-c2c[nH]c(C(=O)N[C@H](CO)c3cccc(Cl)c3)c2)n1 [erk000615]
33 | 2 nM | COc1cccc(Nc2ncc(C)c(-c3c[nH]c(C(=O)N[C@H](CO)c4ccccc4)c3)n2)c1OC [erk000616]
34 | 2 nM | Cc1cccc(Nc2ncc(C)c(-c3c[nH]c(C(=O)N[C@H](CO)c4cccc(Cl)c4)c3)n2)n1 [erk000619]
35 | 229 nM | CC[C@@H](COC(C)=O)Nc1ncc(C)c(-c2c[nH]c(C(=O)N[C@H](COC(C)=O)c3cccc(Cl)c3)c2)n1 [erk000620]
36 | 5 nM | Cc1cnc(NN2CCCCC2)nc1-c1c[nH]c(C(=O)N[C@H](CO)c2cccc(Cl)c2)c1 [erk000621]
37 | 9 nM | COC[C@@H]1CCCN1Nc1ncc(C)c(-c2c[nH]c(C(=O)N[C@H](CO)c3cccc(Cl)c3)c2)n1 [erk000622]
38 | 15 nM | Cc1cnc(NC2CCNCC2)nc1-c1c[nH]c(C(=O)N[C@H](CO)c2cccc(Cl)c2)c1 [erk000623]
39 | 7 nM | Cc1cnc(NN2CCCC2)nc1-c1c[nH]c(C(=O)N[C@H](CO)c2cccc(Cl)c2)c1 [erk000624]
40 | 4 nM | Cc1cccc([C@@H](CO)NC(=O)c2cc(-c3nc(NOCC(F)(F)F)ncc3C)c[nH]2)c1 [erk000625]
41 | 1260 nM | Cc1cnc(N)nc1-c1c[nH]c(C(=O)NCc2cccc(F)c2)c1 [erk000626]
42 | 324 nM | Cc1cnc(N)nc1-c1c[nH]c(C(=O)NCc2c(Cl)cccc2Cl)c1 [erk000627]
43 | 977 nM | Cc1cnc(N)nc1-c1c[nH]c(C(=O)NCc2cc(F)cc(F)c2)c1 [erk000629]
44 | 813 nM | COc1cccc(CNC(=O)c2cc(-c3nc(N)ncc3C)c[nH]2)c1 [erk000630]
45 | 209 nM | Cc1cnc(N[C@H]2CCOC2)nc1-c1c[nH]c(C(=O)N[C@H](CO)c2cccc(Cl)c2)c1 [erk000631]
46 | 15 nM | O=c1[nH][nH]c2cc(Nc3ncc(Nc4ccccc4)c(Nc4cc(C5CC5)[nH]n4)n3)ccc12 [erk000633]
47 | 4 nM | CCNc1ncc(C)c(-c2c[nH]c(C(=O)N[C@H](CO)c3cccc(C)c3)c2)n1 [erk000634]
48 | 4 nM | CCNc1ncc(C)c(-c2c[nH]c(C(=O)N[C@H](CO)c3cccc(Cl)c3)c2)n1 [erk000635]
49 | 380 nM | Cc1cnc(Nc2ccccc2)nc1-c1c[nH]c(C(=O)N[C@H](COC(=O)[C@@H](N)C(C)C)c2ccccc2)c1 [erk000637]
50 | 17 nM | Cc1cnc(NCC2CCOCC2)nc1-c1c[nH]c(C(=O)N[C@H](CO)c2ccccc2)c1 [erk000638]
51 | 17 nM | Cc1cnc(NCC2CCOCC2)nc1-c1c[nH]c(C(=O)N[C@H](CO)c2cccc(Cl)c2)c1 [erk000639]
52 | 28 nM | Cc1cnc(N[C@H]2CCCOC2)nc1-c1c[nH]c(C(=O)N[C@H](CO)c2cccc(Cl)c2)c1 [erk000640]

Row | Ki | SMILES
53 | 20 nM | Cc1cnc(NN2CCN(C)CC2)nc1-c1c[nH]c(C(=O)N[C@H](CO)c2cccc(Cl)c2)c1 [erk000641]
54 | 12 nM | Cc1cccc([C@@H](CO)NC(=O)c2cc(-c3nc(NC4CCCCC4)ncc3C)c[nH]2)c1 [erk000642]
55 | 4 nM | Cc1cnc(NC2CCCCC2)nc1-c1c[nH]c(C(=O)N[C@H](CO)c2cccc(Cl)c2)c1 [erk000643]
56 | 2 nM | Cc1cnc(NC2CCCC2)nc1-c1c[nH]c(C(=O)N[C@H](CO)c2cccc(Cl)c2)c1 [erk000644]
57 | 55 nM | Cc1cnc(Nc2ccccc2)nc1-c1c[nH]c(C(=O)N[C@H](COC(=O)CN)c2ccccc2)c1 [erk000645]
58 | 38 nM | CC(=O)OC[C@@H](NC(=O)c1cc(-c2nc(Nc3ccccc3)ncc2C)c[nH]1)c1ccccc1 [erk000646]
59 | 4 nM | Cc1cccc([C@@H](CO)NC(=O)c2cc(-c3nc(NCC(F)(F)F)ncc3C)c[nH]2)c1 [erk000647]
60 | 26 nM | Cc1cnc(NN(C)C)nc1-c1c[nH]c(C(=O)N[C@H](CO)c2cccc(Cl)c2)c1 [erk000648]
61 | 191 nM | Cc1cnc(NOCc2ccccc2)nc1-c1c[nH]c(C(=O)N[C@H](CO)c2ccccc2)c1 [erk000649]
62 | 4 nM | Cc1csc(Nc2ncc(C)c(-c3c[nH]c(C(=O)N[C@H](CO)c4cccc(Cl)c4)c3)n2)n1 [erk000652]
63 | 3 nM | Cc1ccc(Nc2ncc(C)c(-c3c[nH]c(C(=O)N[C@H](CO)c4ccccc4)c3)n2)c(C)c1 [erk000653]
64 | 52 nM | CCN(CC)c1ccc(Nc2ncc(C)c(-c3c[nH]c(C(=O)N[C@H](CO)c4ccccc4)c3)n2)c(C)c1 [erk000654]
65 | 2340 nM | Cc1cnc(NO)nc1-c1c[nH]c(C(=O)N[C@H](CO)c2ccccc2)c1 [erk000656]
66 | 8 nM | Cc1cnc(Nc2ccc(Cl)cc2Cl)nc1-c1c[nH]c(C(=O)N[C@H](CO)c2ccccc2)c1 [erk000657]
67 | 2 nM | Cc1cnc(Nc2ccc(F)cc2F)nc1-c1c[nH]c(C(=O)N[C@H](CO)c2ccccc2)c1 [erk000658]
68 | 229 nM | NS(=O)(=O)c1cccc(Nc2nccc(-c3ccc(O)c(C(=O)O)c3)n2)c1 [erk000659]
69 | 4 nM | Cc1cccc([C@@H](CO)NC(=O)c2cc(-c3nc(N[C@H]4CCOC4)ncc3C)c[nH]2)c1 [erk000660]
70 | 3 nM | Cc1cnc(NNS(C)(=O)=O)nc1-c1c[nH]c(C(=O)N[C@H](CO)c2cccc(Cl)c2)c1 [erk000661]
71 | 10 nM | O=c1[nH][nH]c2cc(Nc3ccc([N+](=O)[O-])c(Nc4cc(C5CC5)[nH]n4)n3)ccc12 [erk000662]
72 | 1290 nM | Cc1ccccc1CNC(=O)c1cc(-c2ccnc(N)n2)c[nH]1 [erk000663]
73 | 525 nM | Nc1nccc(-c2c[nH]c(C(=O)NCc3cccc(Cl)c3)c2)n1 [erk000664]
74 | 71 nM | Cc1cnc(Nc2ccc3ncsc3c2)nc1-c1c[nH]c(C(=O)N[C@H](CO)c2cccc(Cl)c2)c1 [erk000665]
75 | 6 nM | CC[C@@H](COC(C)=O)Nc1ncc(C)c(-c2c[nH]c(C(=O)N[C@H](CO)c3cccc(Cl)c3)c2)n1 [erk000666]
76 | 3 nM | Cc1cc(N)ccc1Nc1ncc(C)c(-c2c[nH]c(C(=O)N[C@H](CO)c3cccc(Cl)c3)c2)n1 [erk000668]
